Reference: patent US20250145665A1, “MACROCYCLIC PEPTIDES USEFUL AS MODULATORS OF TNF ALPHA” (Bristol-Myers Squibb Company, priority 2023, published 2025)
Positions of bridges follow the written chain, without caps; N, C: chain ends. Non-standard residues stand in square brackets, D forms with d. Residues, ends and D or L forms follow the SMILES beside them. ξ: configuration not given here. Bip(4'-COOH) = N[C@@H](Cc1ccc(-c2ccc(C(=O)O)cc2)cc1)C(=O)O; Bip(4'-NHAc) = CC(=O)Nc1ccc(-c2ccc(C[C@H](N)C(=O)O)cc2)cc1; Ala(morpholin-4-yl) = N[C@@H](CN1CCOCC1)C(=O)O; Phe(3-CONH2) = NC(=O)c1cccc(C[C@H](N)C(=O)O)c1; Bip = N[C@@H](Cc1ccc(-c2ccccc2)cc1)C(=O)O; 2Pal = N[C@@H](Cc1ccccn1)C(=O)O; 2Thi = N[C@@H](Cc1cccs1)C(=O)O; Cha = N[C@@H](CC1CCCCC1)C(=O)O; Chg = N[C@H](C(=O)O)C1CCCCC1; Tle = CC(C)(C)[C@H](N)C(=O)O; ξIle = CC[C@H](C)C(N)C(=O)O; Aze = O=C(O)[C@@H]1CCN1; Sar = CNCC(=O)O

Biological target: TNFα (Homo sapiens, UniProt P01375)
Assay: TNF-Induced HEK-Blue Assay
Format: cell-based
Conditions: HEK-Blue-CD40L cells, NF-kB-driven secreted alkaline phosphatase reporter; TNFα 0.5 ng/ml; 18 h; read-out: TNF induced HEK-Blue assay IC50 value

Chain of TNFα (P01375 77-233 limits assumed): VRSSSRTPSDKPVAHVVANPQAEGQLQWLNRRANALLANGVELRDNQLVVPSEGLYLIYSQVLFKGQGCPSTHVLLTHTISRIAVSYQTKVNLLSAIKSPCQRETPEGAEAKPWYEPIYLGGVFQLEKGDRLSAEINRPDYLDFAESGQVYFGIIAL

Structure (SMILES): CC[C@H](C)[C@@H]1NC(=O)[C@@H](CCCNC(=N)N)NC(=O)[C@H](CC(=O)O)NC(=O)[C@@H]2CCCN2C(=O)CN(C)C(=O)[C@H](Cc2ccc(-c3ccc(NC(C)=O)cc3)cc2)NC(=O)[C@H](Cc2ccc(-c3ccc(C(=O)O)cc3)cc2)NC(=O)[C@H](CC2CCCCC2)NC(=O)CSC[C@@H](C(=O)NCC(N)=O)NC(=O)[C@H](CC(C)C)NC(=O)[C@H](Cc2ccc(O)cc2)NC(=O)[C@H](C(C)C)NC(=O)[C@@H]2CCCN2C1=O [Example 256] ({CH2CO}-[Cha][Bip(4'-COOH)][Bip(4'-NHAc)][Sar]PD[dR]IPVYLCG-NH2; thioether N-13)
- IC50: 50 to 200 nM

Structure (SMILES): CC[C@H](C)[C@@H]1NC(=O)[C@@H](CCCNC(=N)N)NC(=O)[C@H](CC(=O)O)NC(=O)[C@H](Cc2cnc[nH]2)NC(=O)CN(C)C(=O)[C@H](Cc2ccc(-c3ccc(NC(C)=O)cc3)cc2)NC(=O)[C@H](Cc2ccc(-c3ccc(C(=O)O)cc3)cc2)NC(=O)[C@H](CC2CCCCC2)NC(=O)CSC[C@@H](C(=O)NCC(N)=O)NC(=O)[C@H](CC(C)C)NC(=O)[C@H](Cc2cnc[nH]2)NC(=O)[C@H](C(C)C)NC(=O)[C@@H]2CCCN2C1=O [Example 257] ({CH2CO}-[Cha][Bip(4'-COOH)][Bip(4'-NHAc)][Sar]HD[dR]IPVHLCG-NH2; thioether N-13)
- IC50: < 50 nM

Structure (SMILES): CC[C@H](C)C1NC(=O)[C@@H](CCCNC(=N)N)NC(=O)[C@H](CC(=O)O)NC(=O)[C@H](Cc2ccc(O)cc2)NC(=O)CN(C)C(=O)[C@H](Cc2ccc(-c3ccc(NC(C)=O)cc3)cc2)NC(=O)[C@H](Cc2ccc(-c3ccccc3)cc2)NC(=O)[C@H](CN2CCOCC2)NC(=O)CSC[C@@H](C(=O)NCC(N)=O)NC(=O)[C@H](CC(C)C)NC(=O)[C@H](Cc2cccs2)NC(=O)[C@H](C(C)C)NC(=O)[C@@H]2CCCN2C1=O (stereo partly shown) [Example 258] ({CH2CO}-[Ala(morpholin-4-yl)][Bip][Bip(4'-NHAc)][Sar]YD[dR][ξIle]PV[2Thi]LCG-NH2; thioether N-13)
- IC50: 50 to 200 nM

Structure (SMILES): CC(=O)Nc1ccc(-c2ccc(C[C@@H]3NC(=O)[C@H](Cc4ccc(-c5ccccc5)cc4)NC(=O)[C@H](C(C)(C)C)NC(=O)CSC[C@@H](C(=O)NCC(N)=O)NC(=O)[C@H](CC(C)C)NC(=O)[C@H](Cc4cccs4)NC(=O)[C@H](C(C)C)NC(=O)[C@@H]4CCCN4C(=O)[C@H](C(C)C)NC(=O)[C@@H](CCCNC(=N)N)NC(=O)[C@H](CC(=O)O)NC(=O)[C@H](Cc4ccc(O)cc4)NC(=O)CN(C)C3=O)cc2)cc1 [Example 259] ({CH2CO}-[Tle][Bip][Bip(4'-NHAc)][Sar]YD[dR]VPV[2Thi]LCG-NH2; thioether N-13)
- IC50: < 50 nM

Structure (SMILES): CC[C@H](C)[C@@H]1NC(=O)[C@@H](CCCNC(=N)N)NC(=O)[C@H](CC(=O)O)NC(=O)[C@H](Cc2ccc(O)cc2)NC(=O)CN(C)C(=O)[C@H](Cc2ccc(-c3ccc(NC(C)=O)cc3)cc2)NC(=O)[C@H](Cc2ccc(-c3ccccc3)cc2)NC(=O)[C@H](C(C)(C)C)NC(=O)CSC[C@@H](C(=O)NCC(N)=O)NC(=O)[C@H](CC(C)C)NC(=O)[C@H](Cc2cccs2)NC(=O)[C@H](C(C)C)NC(=O)[C@@H]2CCCN2C1=O [Example 260] ({CH2CO}-[Tle][Bip][Bip(4'-NHAc)][Sar]YD[dR]IPV[2Thi]LCG-NH2; thioether N-13)
- IC50: < 50 nM

Structure (SMILES): CC(=O)Nc1ccc(-c2ccc(C[C@@H]3NC(=O)[C@H](Cc4ccc(-c5ccc(C(=O)O)cc5)cc4)NC(=O)[C@H](C(C)(C)C)NC(=O)CSC[C@@H](C(=O)NCC(N)=O)NC(=O)[C@H](CC(C)C)NC(=O)[C@H](Cc4cnc[nH]4)NC(=O)[C@H](C(C)C)NC(=O)[C@@H]4CCCN4C(=O)[C@H](C(C)C)NC(=O)[C@@H](CCCNC(=N)N)NC(=O)[C@H](CC(=O)O)NC(=O)[C@H](Cc4ccccc4)NC(=O)CN(C)C3=O)cc2)cc1 [Example 261] ({CH2CO}-[Tle][Bip(4'-COOH)][Bip(4'-NHAc)][Sar]FD[dR]VPVHLCG-NH2; thioether N-13)
- IC50: < 50 nM

Structure (SMILES): CC[C@H](C)[C@@H]1NC(=O)[C@@H](CCCNC(=N)N)NC(=O)[C@H](CC(=O)O)NC(=O)[C@H](Cc2ccccn2)NC(=O)CN(C)C(=O)[C@H](Cc2ccc(-c3ccc(NC(C)=O)cc3)cc2)NC(=O)[C@H](Cc2ccc(-c3ccccc3)cc2)NC(=O)[C@H](C(C)(C)C)NC(=O)CSC[C@@H](C(=O)NCC(N)=O)NC(=O)[C@H](CC(C)C)NC(=O)[C@H](Cc2cccc(C(N)=O)c2)NC(=O)[C@H](C(C)C)NC(=O)[C@@H]2CCCN2C1=O [Example 262] ({CH2CO}-[Tle][Bip][Bip(4'-NHAc)][Sar][2Pal]D[dR]IPV[Phe(3-CONH2)]LCG-NH2; thioether N-13)
- IC50: 50 to 200 nM

Structure (SMILES): CC(=O)Nc1ccc(-c2ccc(C[C@@H]3NC(=O)[C@H](Cc4ccc(-c5ccccc5)cc4)NC(=O)[C@H](C(C)(C)C)NC(=O)CSC[C@@H](C(=O)NCC(N)=O)NC(=O)[C@H](CC(C)C)NC(=O)[C@H](Cc4ccccc4)NC(=O)[C@H](C(C)C)NC(=O)[C@@H]4CCCN4C(=O)[C@H](C(C)C)NC(=O)[C@@H](CCCNC(=N)N)NC(=O)[C@H](CC(=O)O)NC(=O)[C@H](Cc4ccc(O)cc4)NC(=O)CN(C)C3=O)cc2)cc1 [Example 263] ({CH2CO}-[Tle][Bip][Bip(4'-NHAc)][Sar]YD[dR]VPVFLCG-NH2; thioether N-13)
- IC50: 50 to 200 nM

Structure (SMILES): CC[C@H](C)[C@@H]1NC(=O)[C@@H](CCCNC(=N)N)NC(=O)[C@H](CC(=O)O)NC(=O)[C@H](Cc2ccc(O)cc2)NC(=O)CN(C)C(=O)[C@H](Cc2ccc(-c3ccc(NC(C)=O)cc3)cc2)NC(=O)[C@H](Cc2ccc(-c3ccccc3)cc2)NC(=O)[C@H](C(C)(C)C)NC(=O)CSC[C@@H](C(=O)NCC(N)=O)NC(=O)[C@H](CC(C)C)NC(=O)[C@H](Cc2ccccc2)NC(=O)[C@H](C(C)C)NC(=O)[C@@H]2CCCN2C1=O [Example 264] ({CH2CO}-[Tle][Bip][Bip(4'-NHAc)][Sar]YD[dR]IPVFLCG-NH2; thioether N-13)
- IC50: 50 to 200 nM

Structure (SMILES): CC(=O)Nc1ccc(-c2ccc(C[C@@H]3NC(=O)[C@H](Cc4ccc(-c5ccc(C(=O)O)cc5)cc4)NC(=O)[C@H](C(C)(C)C)NC(=O)CSC[C@@H](C(=O)NCC(N)=O)NC(=O)[C@H](CC(C)C)NC(=O)[C@H](Cc4ccc(O)cc4)NC(=O)[C@H](C(C)C)NC(=O)[C@@H]4CCCN4C(=O)[C@H](C(C)C)NC(=O)[C@@H](CCCNC(=N)N)NC(=O)[C@H](CC(=O)O)NC(=O)[C@@H]4CCCN4C(=O)CN(C)C3=O)cc2)cc1 [Example 265] ({CH2CO}-[Tle][Bip(4'-COOH)][Bip(4'-NHAc)][Sar]PD[dR]VPVYLCG-NH2; thioether N-13)
- IC50: 50 to 200 nM

Structure (SMILES): CC(=O)Nc1ccc(-c2ccc(C[C@@H]3NC(=O)[C@H](Cc4ccc(-c5ccc(C(=O)O)cc5)cc4)NC(=O)[C@H](C(C)(C)C)NC(=O)CSC[C@@H](C(=O)NCC(N)=O)NC(=O)[C@H](CC(C)C)NC(=O)[C@H](Cc4ccc(O)cc4)NC(=O)[C@H](C(C)C)NC(=O)[C@@H]4CCN4C(=O)[C@H](C(C)C)NC(=O)[C@@H](CCCNC(=N)N)NC(=O)[C@H](CC(=O)O)NC(=O)[C@@H]4CCCN4C(=O)CN(C)C3=O)cc2)cc1 [Example 266] ({CH2CO}-[Tle][Bip(4'-COOH)][Bip(4'-NHAc)][Sar]PD[dR]V[Aze]VYLCG-NH2; thioether N-13)
- IC50: 50 to 200 nM

Structure (SMILES): CC[C@H](C)[C@@H]1NC(=O)[C@@H](CCCNC(=N)N)NC(=O)[C@H](CC(=O)O)NC(=O)[C@@H]2CCCN2C(=O)CN(C)C(=O)[C@H](Cc2ccc(-c3ccc(NC(C)=O)cc3)cc2)NC(=O)[C@H](Cc2ccc(-c3ccccc3)cc2)NC(=O)[C@H](C(C)(C)C)NC(=O)CSC[C@@H](C(=O)NCC(N)=O)NC(=O)[C@H](CC(C)C)NC(=O)[C@H](Cc2ccc(O)cc2)NC(=O)[C@H](C(C)C)NC(=O)[C@@H]2CCCN2C1=O [Example 267] ({CH2CO}-[Tle][Bip][Bip(4'-NHAc)][Sar]PD[dR]IPVYLCG-NH2; thioether N-13)
- IC50: 50 to 200 nM

Structure (SMILES): CC[C@H](C)[C@@H]1NC(=O)[C@@H](CCCNC(=N)N)NC(=O)[C@H](CC(=O)O)NC(=O)[C@H](Cc2ccccc2)NC(=O)CN(C)C(=O)[C@H](Cc2ccc(-c3ccc(NC(C)=O)cc3)cc2)NC(=O)[C@H](Cc2ccc(-c3ccc(C(=O)O)cc3)cc2)NC(=O)[C@H](C(C)(C)C)NC(=O)CSC[C@@H](C(=O)NCC(N)=O)NC(=O)[C@H](CC(C)C)NC(=O)[C@H](CCCNC(=N)N)NC(=O)[C@H](C2CCCCC2)NC(=O)[C@@H]2CCCN2C1=O [Example 268] ({CH2CO}-[Tle][Bip(4'-COOH)][Bip(4'-NHAc)][Sar]FD[dR]IP[Chg]RLCG-NH2; thioether N-13)
- IC50: < 50 nM

Structure (SMILES): CC[C@H](C)[C@@H]1NC(=O)[C@@H](CCCNC(=N)N)NC(=O)[C@H](CC(=O)O)NC(=O)[C@@H]2CCCN2C(=O)CN(C)C(=O)[C@H](Cc2ccc(-c3ccc(NC(C)=O)cc3)cc2)NC(=O)[C@H](Cc2ccc(-c3ccc(C(=O)O)cc3)cc2)NC(=O)[C@H](C(C)(C)C)NC(=O)CSC[C@@H](C(=O)NCC(N)=O)NC(=O)[C@H](CC(C)C)NC(=O)[C@H](Cc2ccc(O)cc2)NC(=O)[C@H](C(C)C)NC(=O)[C@@H]2CCCN2C1=O [Example 269] ({CH2CO}-[Tle][Bip(4'-COOH)][Bip(4'-NHAc)][Sar]PD[dR]IPVYLCG-NH2; thioether N-13)
- IC50: 50 to 200 nM

Structure (SMILES): CC[C@H](C)[C@@H]1NC(=O)[C@@H](CCCNC(=N)N)NC(=O)[C@H](CC(=O)O)NC(=O)[C@@H]2CCCN2C(=O)CN(C)C(=O)[C@H](Cc2ccc(-c3ccc(NC(C)=O)cc3)cc2)NC(=O)[C@H](Cc2ccc(-c3ccc(C(=O)O)cc3)cc2)NC(=O)[C@H](C(C)(C)C)NC(=O)CSC[C@@H](C(=O)NCC(N)=O)NC(=O)[C@H](CC(C)C)NC(=O)[C@H](Cc2ccc(O)cc2)NC(=O)[C@H](C2CCCCC2)NC(=O)[C@@H]2CCCN2C1=O [Example 270] ({CH2CO}-[Tle][Bip(4'-COOH)][Bip(4'-NHAc)][Sar]PD[dR]IP[Chg]YLCG-NH2; thioether N-13)
- IC50: 50 to 200 nM

Structure (SMILES): CC(=O)Nc1ccc(-c2ccc(C[C@@H]3NC(=O)[C@H](Cc4ccc(-c5ccc(C(=O)O)cc5)cc4)NC(=O)[C@H](CC4CCCCC4)NC(=O)CSC[C@@H](C(=O)NCC(N)=O)NC(=O)[C@H](CC(C)C)NC(=O)[C@H](Cc4cnc[nH]4)NC(=O)[C@H](C(C)C)NC(=O)[C@@H]4CCN4C(=O)[C@H](C(C)C)NC(=O)[C@@H](CCCNC(=N)N)NC(=O)[C@H](CC(=O)O)NC(=O)[C@H](Cc4ccc(O)cc4)NC(=O)CN(C)C3=O)cc2)cc1 [Example 271] ({CH2CO}-[Cha][Bip(4'-COOH)][Bip(4'-NHAc)][Sar]YD[dR]V[Aze]VHLCG-NH2; thioether N-13)
- IC50: 50 to 200 nM
